Measured values reported in patent US9567347B2, “Use of small molecule inhibitors targeting the interaction between RAC GTPase and p67(phox)” (CHILDREN'S HOSPITAL MEDICAL CENTER, priority 2012, dated 2017).

Tests used:
neutrophils = test: toxicity to neutrophils; type: cell-based, mouse
[1] = test system: fMLP-activated primary murine neutrophils; test: Nitroblue tetrazolium (NBT) assay; type: cell-based, mouse; conditions: for ROS inhibition (NBT positive cells): 10 μM, FIG. 9
Protocol: Primary neutrophils from mouse bone marrow were subjected to fMLP stimulation in the presence or absence of various chemicals for 5 min. Cells were stained for NBT activity as previously described in the incorporated materials of Filippi et al. (2004) to reveal relative ROS production.
To complement the DCFDA based FACS analysis and the luminol chemiluminescence method, nitroblue tetrazolium (NBT) assays were performed in fMLP-activated primary murine neutrophils (FIG. 3C).
The NBT assay was performed in primary murine neutrophils to measure ROS neutrophil production. […] Each compound was used at 10 μM.

dHL-60 cells [2] = test: antioxidant (ROS scavenger) test in dHL-60 cells pre-stimulated with fMLP; type: cell-based, human; conditions: fMLP 30 min prior to treatment
Protocol: (A) Apoptosis analysis by FACS of HL-60 cells treated with compound or vehicle control for 2 hours prior to 7-AAD and Annexin V staining. (B) HL-60 cells from A were harvested and lysates were immunoblotted for levels of pPAK, and actin was used as a control for loading. (C) F-actin reorganization in freshly isolated fMLP-stimulated primary murine neutrophils was analyzed. […] Cells were exposed to a 10 μM dose of Phox-I1, Phox-I2, and Analog 13, and 200 nM nocodazole. (D) The effect of Phox-I on NOX4 mediated ROS production was tested in primary murine neutrophils transfected with a NOX4 expressing plasmid. 10 μM Phox-I1 was applied to the cells for 30 min prior to ROS assay by luminol chemiluminescence in the presence of HRP. The fMLP-stimulated ROS activity in the presence or absence of 10 uM Phox-I1 was measured in parallel. (E) The antioxidant abilities of these lead compounds were tested by prestimulating dHL-60 cells with fMLP for 30 minutes prior to treatment with Phox-I1 or Phox-I2. Levels of superoxide were analyzed by DCFDA assay and FACS. NAC, apocyanin, DPI, and NSC23766 treated cells served as controls. […] (G) For stability assay, DMSO-differentiated HL-60 cells were treated with 20 μM dose of compound for the indicated time period prior to fMLP stimulation and DCFDA ROS production assay by FACS analysis.
Phox-I1 was then applied to primary murine neutrophils expressing the constitutively active NOX4. […] To further rule out that Phox-I1 and Phox-I2 may simply act as scavengers of ROS, dHL-60 cells were pre-stimulated with fMLP for 30 min prior to treatment with Phox-I1 or Phox-I2.

Pak = test: immunoblot of phosphorylated Pak; type: cell-based, human; conditions: 18 hr treatment
Protocol: Whole-cell lysates were prepared by cell extraction using lysis buffer containing 20 mM Tris-HCl (pH 7.6), 100 mM NaCl, 10 mM MgCl2, 1% Triton X-100, 0.2% sodium deoxycholate, 1 mM phenylmethylsulfonyl fluoride, 10 μg/mL of leupeptin, 1 μg/mL of aprotinin, and 1 mM dithiothreitol for 30 min. Equal amounts of protein, as determined by Bradford assay, were resolved by SDS-PAGE. Specific proteins were detected by standard 9 immunoblotting procedures using the following primary antibodies: (Cell Signaling, 1:500 dilution) phospho-PAK1 (Ser144)/PAK2 (Ser141), (Sigma-Aldrich 1:500) β-Actin.
To analyze the biochemical specificity of these lead inhibitors on the effector pathways of active Rac1, undifferentiated HL-60 cells were treated with Phox-I1, Phox-I2, or NSC23766 for 18 hr. Immunoblot of the cell lysates was performed to probe the activity of Pak, a Rac effector other than p67^phox (FIG. 4B).

[3] = test system: undifferentiated HL-60 cells; test: apoptosis analysis by FACS (Annexin V / 7-AAD); type: cell-based, human; conditions: 20 or 100 μM
Protocol: (§1) Cells (5×10^5) were harvested and processed for Annexin V/7AAD staining according to manufacturer's protocol (Becton Dickinson). Flow cytometry data were acquired on a FACS Canto bench-top flow cytometer (Becton Dickinson) and the cell cycle distributions were determined by […] using Flo-Jo software (Bosco et al (2010) Blood 115, 3320-3328, hereby incorporated by reference in its entirety). For ROS production assay, primary murine neutrophils or dHL60 cells were incubated with compound for 2 hours prior to addition of H2-DCFDA according to manufacturer's instructions (Molecular Probes). Cells were then stimulated with 10 μM fMLP (Sigma), 1 mM CaCl2, and 1.5 mM MgCl2 for 15 minutes prior to wash and FACS analysis for mean fluorescence intensity. Non-fMLP stimulated control values were subtracted from all samples before normalization to fMLP-stimulated, vehicle control treated sample in order to display percent ROS inhibition.
In order to determine potency and cytotoxicity of Phox-I1 and Phox-I2, the levels of apoptosis were assessed in undifferentiated HL-60 cells treated with 20 or 100 μM Phox-I1, Phox-I2, or NSC23766 by FACS analysis for Annexin V (FIG. 4A).

dHL-60 cells [4] = test: DCFDA ROS assay after wash and recovery (affinity assay); type: cell-based, human; conditions: 2 hr treatment, recovery 4 hr or 2 hr
Protocol: (A) Apoptosis analysis by FACS of HL-60 cells treated with compound or vehicle control for 2 hours prior to 7-AAD and Annexin V staining. (B) HL-60 cells from A were harvested and lysates were immunoblotted for levels of pPAK, and actin was used as a control for loading. (C) F-actin reorganization in freshly isolated fMLP-stimulated primary murine neutrophils was analyzed. […] Cells were exposed to a 10 μM dose of Phox-I1, Phox-I2, and Analog 13, and 200 nM nocodazole. (D) The effect of Phox-I on NOX4 mediated ROS production was tested in primary murine neutrophils transfected with a NOX4 expressing plasmid. 10 μM Phox-I1 was applied to the cells for 30 min prior to ROS assay by luminol chemiluminescence in the presence of HRP. The fMLP-stimulated ROS activity in the presence or absence of 10 uM Phox-I1 was measured in parallel. (E) The antioxidant abilities of these lead compounds were tested by prestimulating dHL-60 cells with fMLP for 30 minutes prior to treatment with Phox-I1 or Phox-I2. Levels of superoxide were analyzed by DCFDA assay and FACS. NAC, apocyanin, DPI, and NSC23766 treated cells served as controls. (F) For affinity assay, DMSO-differentiated HL-60 cells were treated with standard effective dose of indicated compound for 2 hours, washed, and allowed to recover in normal media for 4 hours or 2 hours prior to fMLP stimulation and DCFDA ROS production assay by FACS analysis. (G) For stability assay, DMSO-differentiated HL-60 cells were treated with 20 μM dose of compound for the indicated time period prior to fMLP stimulation and DCFDA ROS production assay by FACS analysis.
Next, a stability experiment was performed to determine the duration of effectiveness of the compound in suppressing neutrophils. To analyze the relative affinities of these compounds for the p67^phox target in cells, DCFDA ROS production assays were performed in dHL-60 cells treated with compound for 2 hr followed by wash and recovery for 4 hr or 2 hr in normal media prior to ROS production analysis.

[5] = test system: primary murine neutrophils; test: F-actin immunofluorescence, polarization upon fMLP stimulation; type: cell-based, mouse; conditions: 200 nM; control 80%
Protocol: Cells were pretreated with compound for 40 minutes prior to wash, and resuspended in HBSS with compound. Cells were allowed to adhere to fibronectin (Sigma Aldrich) coated glass coverslips (15 min) and then stimulated with 100 nM fMLP (3 min). Coverslips were then fixed with 3.7% paraformaldehyde (Sigma Aldrich) and then staining for […] was performed with rhodamine phalloidin per the manufacturer's instructions (Molecular Probes). Another method of addressing Rac-signaling specificity in neutrophils is by monitoring their ability to polarize actin to the leading edge upon fMLP stimulation. Neither Phox-I1, Phox-I2, nor an analog 13 (all at 10 μM), were able to block the Rac-mediated dynamic process of F-actin polarization to the leading edge of primary murine neutrophils as observed by F-actin immunofluorescence imaging (FIG. 4C, left panel). F-actin polarization was evident in about 80% of each treatment group of cells as in the control, untreated cells (FIG. 4C, right panel).

LPS-induced ALI in mice = conditions: 5 mg/kg i.p. every 8 hours, 24 hours after LPS
Protocol: FIG. 8. […] Mice were challenged with LPS or vehicle via intratracheal administration and treated or not with compound 100 (indicated as “NOX2-I”; 5 mg/kg, 3 injections every 8 hours). (A) Isoprostane, as an indication of ROS production, was measured in lung homogenates 24 hours following LPS challenge by ELISA. (B) Lung histology was performed 24 hours after LPS challenge. (n=3 mice per group). Representative images of histology are shown.
One life-threatening consequence of hemorrhagic shock is acute lung injury (ALI), which is associated with infiltration of neutrophils and release of ROS. A model of LPS-induced ALI was used in mice to test efficacy of the difluoro compound 100 in vivo.
Mice (N=3 per group) were treated with LPS (100 ng in 80 μl PBS) or PBS (vehicle) employing oral-tracheal intubation. Following challenge, the mice were injected i.p. with 5 mg/kg of compound 100, every 8 hours. The relative level of ROS release in the lungs upon LPS challenge was assessed by measuring 8-isoprostane by ELISA in lung tissue homogenates. Isoprostanes are a family of eicosanoids produced by the oxidation of tissue phospholipids by oxygen radicals. The amount of 8-isoprostane generated is thus an indication of ROS production.

[6] = test system: fMLP-stimulated differentiated HL-60 cells; test: H2-DCFDA FACS ROS production assay in fMLP-stimulated differentiated HL-60 cells; type: cell-based, human; conditions: treated 2 hours, FIG. 5B
Protocol: HL-60 cells were propagated in RPMI 1640 medium containing 10% heat inactivated fetal bovine serum, 2 mM L-glutamine, 100 U/mL penicillin/streptomycin at 37° C. in air containing 5% CO2. For differentiation, HL-60 cells were cultured in 1.3% dimethyl sulfoxide (DMSO) as previously described (Servant, G., et al. (1999) Mol Biol Cell 10, 1163-1178, hereby incorporated by reference in its entirety). Primary murine neutrophils were isolated from C57Bl/6 mouse bone marrow according to a published protocol (Filippi et al., (2004) Nat Immunol 5, 744-751, hereby incorporated by reference in its entirety) using a discontinuous Percoll (Pharmacia) gradient and were utilized immediately in experiments. Human neutrophils were obtained from fresh blood (IRB #2010-1855, Cincinnati Children's Hospital medical Center) following a well established protocol using density gradient separation from whole blood (Oh et al. (2008) J Vis Exp., 17, pii: 745, hereby incorporated by reference in its entirety).
as §1
To validate the hits from preliminary screening in cells, several cellular functional assays were performed using different cell types to measure the effect of compounds on inhibition of ROS production. ROS levels were first analyzed by fluorescence-activated cell sorting (FACS) in HL-60 pre-incubated with compounds for 2 hr prior to stimulation of ROS production. The p67^phox inhibitor, Phox-I1, was tested against NAC (a ROS scavenger), DPI (a broad range inhibitor of NADPH oxidase), and NSC23766 (a Rac-GTP inhibitor; FIG. 2A). […] H2O2 added to the cells was included as a positive control for ROS measurement. Second, to test the capacity of Phox-I1 to inhibit ROS production in a primary cell context, primary murine neutrophils isolated from mouse bone marrow were treated with increasing concentrations of Phox-I1 and the efficacy of inhibition of fMLP-stimulated ROS production was analyzed. DPI treatment was included as a positive control for inhibition of ROS production (FIG. 2B). […] Next, to ascertain the optimal effective dose for ROS inhibition in cells, a dose titration series of Phox-I1 was administered to dHL-60 cells (FIG. 2C).

For Fc1cccc(C2Nc3ccc(F)cc3C3C=CCCC32)c1 (centres unmarked) [Compound 109], the toxicity to neutrophils (neutrophils) was “toxic to neutrophils”.
For Fc1cccc([C@H]2Nc3ccc(F)cc3[C@@H]3OCCC[C@H]23)c1 [Compound 101], the “ROS inhibition (NBT positive cells)” value [1] was “highest level of ROS inhibition” and the “ROS inhibition, dose response (NBT)” value ([1]; 0.1 to 10 μM, FIG. 10) was “most potent ROS inhibitor”.
With COc1cc(C(C)=O)ccc1O [apocyanin] the “levels of superoxide already produced” value (dHL-60 cells [2]) was “do not affect”.
In the case of CCN(CC)CCCC(C)Nc1nc(C)cc(Nc2ccc3nc(C)cc(N)c3c2)n1 (centres unmarked) [NSC23766, reference compound], the “phosphorylated Pak levels” value (Pak) is reported as “abrogated”, the “cell apoptosis (Annexin V)” value [3] is reported as “no detectable effect on cell apoptosis” and the “levels of superoxide already produced” value (dHL-60 cells [2]) is reported as “do not affect”. The “ROS inhibition after wash” value (dHL-60 cells [4]) was “retained the ability to inhibit ROS production”.
c1ccc2c(c1)[I+]c1ccccc1-2 [DPI, diphenyleneiodonium] was tested, and the “levels of superoxide already produced” value (dHL-60 cells [2]) was “do not affect”.
With COC(=O)Nc1nc2ccc(C(=O)c3cccs3)cc2[nH]1 [Nocodazole, reference compound] the “cells with F-actin polarization” value [5] was roughly 20%.
In the case of CC(=O)N[C@@H](CS)C(=O)O [NAC, reference compound], the “ROS inhibition after wash” value (dHL-60 cells [4]) is reported as “retained the ability to inhibit ROS production”.
Fc1ccc2c(c1)[C@@H]1C=CC[C@@H]1[C@H](c1ccc(Cl)s1)N2 [Compound 103] was tested, and the “ROS inhibition (NBT positive cells)” value [1] was “highest level of ROS inhibition”.
With Fc1ccc2c(c1)[C@@H]1C=CC[C@@H]1[C@H](c1cccc(Cl)c1)N2 [Compound 106] the “ROS inhibition (NBT positive cells)” value [1] was “highest level of ROS inhibition”.
Fc1cccc(C2Nc3ccc(F)cc3C3C=CCC32)c1 (centres unmarked) [Compound 100] was tested, and the “superoxide inhibition (NBT), Phox-I2 analogs” value ([1]; FIG. 5C) was “profound superoxide inhibition”, the “lung histology: neutrophil infiltration, alveoli wall thickness, lung architecture” value (LPS-induced ALI in mice) was “attenuated” and the “ROS inhibitory activity, Phox-I2 analogs” value [6] was “retain activity”.
With Fc1cccc([C@@H]2Nc3ccc(Br)cc3[C@@H]3C=CC[C@@H]32)c1 [Compound 102] the “ROS inhibition (NBT positive cells)” value [1] was “highest level of ROS inhibition”.
